# Patent US20230374034A1, “NOVEL BICYCLIC COMPOUNDS” (PRISM BIOLAB CO., LTD., priority 2020, published 2023)
# Tested on: NICD (Notch intracellular domain) CSL-bla reporter in HeLa cells
# Test: Notch assay (CellSensor T-REx NICD CSL-bla HeLa beta-lactamase reporter; Method 1 / Method 2)
# Assay type: cell-based
# Conditions: Homo sapiens, 10 μM compound, Method 1 (10× compound prepared in assay medium, added to plated cells), read-out: inhibiton (%) at 10 μM
# Excerpt: We used the CellSensor T-REx™ NICD CSL-bla HeLa cell line, which was engineered by lentiviral transduction of HeLa cells with a Notch response element driving beta-lactamase reporter gene expression (CSL-bla) along with DOX (doxycycline)-inducible NICD (Notch intracellular domain) constructs. Addition of DOX to these cells allows for regulated NICD transcription factor expression and subsequent beta-lactamase expression.
# Specifically, the following protocol was used.
# NOTCH ASSAY PROTOCOL (Method 2)
# • 1. Add 40 nL/well of working concentration of 1000× compound to 384-well assay plate with Echo. • 2. Plate Cells: 35 μl/well of HeLa/T-REx™ NICD CSL-bla cells at 10^3 cells/well complete medium into 384-well plate. • 3. Add 5 μl 8× Doxycycline in Assay Medium to the treated wells, and 5 μl Assay Medium to the Untreated and cell free control wells. • 4. Incubate the assay plate in a humidified 37° C./5% CO2 incubator for 16-20 hours. • 5. Preparation of 6× LiveBLAzer™-FRET B/G Substrate (CCF4-AM) Mixture according to the manual and cell loading should be done in the absence of direct strong lighting. • 6. Remove assay plate from the humidified 37° C./5% CO2 incubator. Add 8 μl of 6× Substrate Mixture from Step 5 to each well. Cover the plate to protect it from light and evaporation. Incubate at room temperature for 4 hours. • 7. Reading an Assay Plate using the following filter selections:
# • 8. Data analysis: Use the assay plate layout to identify the location of the Cell-free wells. These control wells are used for background subtraction. Determine the average emission from the Cell-free wells at both 460 nm (Average Blue Background) and 530 nm(Average Green Background). Subtract the Average Blue Background (data collected at 460 nm) from all of the blue emission data. Subtract the Average Green background (data collected at 530 nm) from all of the green emission data. Calculate the Blue/Green Emission Ratio for each well, by dividing the background-subtracted blue emission values by the background-subtracted green emission values.
# Instead of Step 1 to Step 3, the following Step a to Step d can also be performed. The subsequent steps are the same as Method 2, after Step 4 (Method 1). • a. Plate Cells: 32 μL/well of HeLa/T-REx™ NICD CSL-bla cells at 10^3 cells/well complete medium into 384-well plate. • b. Prepare 10× compounds in assay medium. • c. Add 4 μL compounds or 1% DMSO in assay medium to the cells. • d. Add 4 μL 10×Doxycycline in Assay Medium to the treated wells, and 4 μL Assay Medium to the Untreated and cell free control wells.
# The results are shown in Table 13 (Table 13-1 to Table 13-2).
row,Compound,inhibition at 10 µM [%]
1,"CCCCCCOC(=O)N1O[C@@H](C(C)C)C(=O)N2C1CN(Cc1ccccc1)C(=O)[C@@H]2Cc1ccc(O)cc1 (stereo partly drawn) [Compound I-3, (3S,6S)-hexyl 8-benzyl-6-(4-hydroxybenzyl)-3-isopropyl-4,7-dioxohexahydropyrazino[2,1-c][1,2,4]oxadiazine-1(6H)-carboxylate]",53.6
2,"CCCC[C@@H]1ON(C(=O)OCc2cccc3ccccc23)C2CN(C(C)C)C(=O)[C@H](Cc3ccc(O)cc3)N2C1=O (stereo partly drawn) [Compound I-23, (3S,6S)-naphthalen-1-ylmethyl 3-butyl-6-(4-hydroxybenzyl)-8-isopropyl-4,7-dioxohexahydropyrazino[2,1-c][1,2,4]oxadiazine-1(6H)-carboxylate]",50.4
3,"CC(C)C[C@@H]1ON(C(=O)OCc2cccc3ccccc23)C2CN(C(C)C)C(=O)[C@H](Cc3ccc(O)cc3)N2C1=O (stereo partly drawn) [Compound I-24, (3S,6S)-naphthalen-1-ylmethyl 6-(4-hydroxybenzyl)-3-isobutyl-8-isopropyl-4,7-dioxohexahydropyrazino[2,1-c][1,2,4]oxadiazine-1(6H)-carboxylate]",68.1

# Same assay, conditions: Homo sapiens, 10 μM compound, Method 2 (40 nL of 1000× compound added to plate with Echo), read-out: inhibiton (%) at 10 μM
row,Compound,inhibition at 10 µM [%]
1,"CCCC[C@@H](C(=O)NCCC(C)C)N1CC2N(C(=O)OCCc3ccc(O)cc3)O[C@H](CC(C)C)C(=O)N2[C@@H](Cc2ccc(O)cc2)C1=O (stereo partly drawn) [Compound I-97, 4-hydroxyphenethyl (3R,6S)-6-(4-hydroxybenzyl)-3-isobutyl-8-((S)-1-(isopentylamino)-1-oxohexan-2-yl)-4,7-dioxohexahydropyrazino[2,1-c][1,2,4]oxadiazine-1(6H)-carboxylate]",57.3
2,"NC(=O)C[C@H]1C(=O)N(CCc2cccc3ccccc23)CC2N(C(=O)OCC3CCCCC3)O[C@H](Cc3ccc(O)cc3)C(=O)N21 (stereo partly drawn) [Compound I-49, (3R,6S)-cyclohexylmethyl 6-(2-amino-2-oxoethyl)-3-(4-hydroxybenzyl)-8-(2-(naphthalen-1-yl)ethyl)-4,7-dioxohexahydropyrazino[2,1-c][1,2,4]oxadiazine-1(6H)-carboxylate]",92.6
3,"CC(C)C[C@H]1ON(CCCc2ccccc2)C2CN(C3CCN(C)CC3)C(=O)[C@H](CC3CCCCC3)N2C1=O (stereo partly drawn) [Compound I-143, (3R,6S)-6-(cyclohexylmethyl)-3-isobutyl-8-(1-methylpiperidin-4-yl)-1-(3-phenylpropyl) tetrahydropyrazino [2,1-c][1,2,4]oxadiazine-4,7(3H,6H)-dione]",105
4,"CCCC[C@@H](C(=O)NCCCC(C)C)N1CC2N(C(=O)OCCc3ccc(O)cc3)O[C@H](Cc3ccccc3)C(=O)N2[C@@H](C)C1=O (stereo partly drawn) [Compound I-122, 4-hydroxyphenethyl (3R,6S)-3-benzyl-6-methyl-8-((S)-1-((4-methylpentyl)amino)-1-oxohexan-2-yl)-4,7-dioxohexahydropyrazino [2,1-c][1,2,4]oxadiazine-1(6H)-carboxylate]",79.9
5,"C[C@H]1C(=O)N(Cc2cccc3ccccc23)CC2N(C(=O)OCC3CCCCC3)O[C@H](CCCNC(=N)N)C(=O)N21 (stereo partly drawn) [Compound I-52, (3R,6S)-cyclohexylmethyl 3-(3-guanidinopropyl)-6-methyl-8-(naphthalen-1-ylmethyl)-4,7-dioxohexahydropyrazino[2,1-c][1,2,4]oxadiazine-1(6H)-carboxylate]",51.4
6,"CCCCCC[C@H]1C(=O)N(C2CCN(C)CC2)C[C@@H]2N(CCCc3ccccc3)O[C@H](CC(C)C)C(=O)N21 [Compound I-142, (3R,6S,9aS)-6-hexyl-3-isobutyl-8-(1-methylpiperidin-4-yl)-1-(3-phenylpropyl) tetrahydropyrazino [2,1-c][1,2,4]oxadiazine-4,7(3H,6H)-dione]",113
7,"CC[C@H](C)CN1CC2N(C(=O)OCC(C)C)O[C@H](CC3CCCCC3)C(=O)N2[C@@H](CCCCN)C1=O (stereo partly drawn) [Compound I-40, (3R,6S)-isobutyl 6-(4-aminobutyl)-3-(cyclohexylmethyl)-8-((S)-2-methylbutyl)-4,7-dioxohexahydropyrazino[2,1-c][1,2,4]oxadiazine-1(6H)-carboxylate]",124
8,"CC(C)C[C@H]1ON(C(=O)OCC2CCCCC2)C2CN(C3CCNCC3)C(=O)[C@H](CC(C)C)N2C1=O (stereo partly drawn) [Compound I-135, cyclohexylmethyl (3R,6S)-3,6-diisobutyl-4,7-dioxo-8-(piperidin-4-yl)hexahydropyrazino[2,1-c][1,2,4]oxadiazine-1(6H)-carboxylate]",110
9,"CC(C)CCOC(=O)N1O[C@H](C)C(=O)N2C1CN([C@@H](Cc1ccccc1)C(=O)NCCCC(N)=O)C(=O)[C@@H]2Cc1ccccc1 (stereo partly drawn) [Compound I-87, isopentyl (3R,6S)-8-((S)-1-((4-amino-4-oxobutyl)amino)-1-oxo-3-phenylpropan-2-yl)-6-benzyl-3-methyl-4,7-dioxohexahydro-pyrazino[2,1-c] [1,2,4]oxadiazine-1(6H)-carboxylate]",58.3
10,"CCCC[C@@H](C(=O)NCCc1ccccc1)N1CC2N(C(=O)OCCc3ccc(O)cc3)O[C@H](CC(C)C)C(=O)N2[C@@H](Cc2ccc(O)cc2)C1=O (stereo partly drawn) [Compound I-103, 4-hydroxyphenethyl (3R,6S)-6-(4-hydroxybenzyl)-3-isobutyl-4,7-dioxo-8-((S)-1-oxo-1-(phenethylamino)hexan-2-yl)hexahydropyrazino[2,1-c][1,2,4]oxadiazine-1(6H)-carboxylate]",59.9
11,"CCCCOC(=O)N1O[C@H](CCC(N)=O)C(=O)N2C1CN(CCO)C(=O)[C@@H]2C (stereo partly drawn) [Compound I-50, (3R,6S)-butyl 3-(3-amino-3-oxopropyl)-8-(2-hydroxyethyl)-6-methyl-4,7-dioxohexahydropyrazino[2,1-c][1,2,4]oxadiazine-1(6H)-carboxylate]",64.6
12,"NC(=O)CC[C@H]1C(=O)N([C@@H](Cc2ccccc2)C(=O)NCCCc2ccccc2)CC2N(C(=O)OCCc3ccccc3)O[C@H](Cc3ccccc3)C(=O)N21 (stereo partly drawn) [Compound I-125, phenethyl (3R,6S)-6-(3-amino-3-oxopropyl)-3-benzyl-4,7-dioxo-8-((S)-1-oxo-3-phenyl-1-((3-phenylpropyl)amino)propan-2-yl)hexahydropyrazino [2,1-c][1,2,4]oxadiazine-1(6H)-carboxylate]",59.6
13,"CCCCCOC(=O)N1O[C@H](CC(C)C)C(=O)N2C1CN([C@@H](Cc1ccc(O)cc1)C(=O)NCCCC(C)C)C(=O)[C@@H]2Cc1ccc(O)cc1 (stereo partly drawn) [Compound I-100, pentyl (3R,6S)-6-(4-hydroxybenzyl)-8-((S)-3-(4-hydroxyphenyl)-1-((4-methylpentyl)amino)-1-oxopropan-2-yl)-3-isobutyl-4,7-dioxohexahydropyrazino [2,1-c][1,2,4]oxadiazine-1(6H)-carboxylate]",63.8
14,"CCCC[C@@H](C(=O)NCCCC(C)C)N1CC2N(C(=O)OCCc3ccc(O)cc3)O[C@H](CC(C)C)C(=O)N2[C@@H](Cc2ccc(O)cc2)C1=O (stereo partly drawn) [Compound I-101, 4-hydroxyphenethyl (3R,6S)-6-(4-hydroxybenzyl)-3-isobutyl-8-((S)-1-((4-methylpentyl)amino)-1-oxohexan-2-yl)-4,7-dioxohexahydropyrazino[2,1-c][1,2,4]oxadiazine-1(6H)-carboxylate]",54.4
15,"CC(C)CCNC(=O)[C@H](Cc1ccc(O)cc1)N1CC2N(C(=O)OCCc3ccc(O)cc3)O[C@H](Cc3ccccc3)C(=O)N2[C@@H](Cc2ccc(O)cc2)C1=O (stereo partly drawn) [Compound I-108, 4-hydroxyphenethyl (3R,6S)-3-benzyl-6-(4-hydroxybenzyl)-8-((S)-3-(4-hydroxyphenyl)-1-(isopentylamino)-1-oxopropan-2-yl)-4,7-dioxohexahydropyrazino[2,1-c][1,2,4]oxadiazine-1(6H)-carboxylate]",72.4
16,"CC(C)C[C@H]1ON(C(=O)OCc2ccccc2)C2CN(C3CCN(C)CC3)C(=O)[C@H](CC3CCCCC3)N2C1=O (stereo partly drawn) [Compound I-140, benzyl (3R,6S)-6-(cyclohexylmethyl)-3-isobutyl-8-(1-methylpiperidin-4-yl)-4,7-dioxohexahydropyrazino [2,1-c][1,2,4]oxadiazine-1(6H)-carboxylate]",60.9
